# Assay results as given in patent US3956491A, “Medicine containing the main sapogenin of helleborus” (priority 1974, dated 1976).
# Legend:
# [1] = system: indometacin ulcer of rats; test: indometacin ulcer of rats (method of John and Adrian modified by Wilhelmi); assay type: in vivo, Albino rats of the strain SIV 50; conditions: for ULCER PROTECTING EFFECT: indometacin 20 mg/kg, 24 h
# Experimental: These tests were carried out according to the method of John and Adrian modified by Wilhelmi on the indometacin ulcer of rats (see Arzeimittelforschung Vol. 19 (1969) pages 45 et seq.).
# The determination is carried out in the following manner.
# Albino rats of the strain SIV 50 (S. Ivanovas, Kisslegg/allgau) having an initial weight of 250 to 300 grams were held in controlled temperature rooms at 20° to 22°C. in wire cages (Ebeco, Type 3 double width) on a standard diet (Altromin). After 48 hour feeding intervals the animals received 20 mg/kg rat of indometacin in 1.5% tragacanth (1 ml tragacanth solution per 100 grams of rat) applied introgastrally.
# One hour after giving the indometacin there was dispensed orally to the animals the test substance. The rats remain otherwise fasting (water ad libitum)
# Twenty four hours after giving the indometacin the animals were killed with […]. The stomach was resected, opened along the great curvature and washed under flowing water.
# The ulcerative changes appear as dark, point or stria shaped spots on the mucosa. The evaluation was done according to the method of Munchow Arneimittedforschung Vol. 4 (1954) pages 341-344.
# [2] = system: histamine ulcers of guinea pigs; test: histamine type of ulcer of guinea pigs (method of Eagleton and Watt); assay type: in vivo; conditions: oral, histamine diphosphate 5 mg/kg
# Experimental: The testing of the histamine type of ulcer of guinea pigs is carried out for example by the method of Eagleton and Watt (Peptic Ulcer, Pfeiffer, Munksgaard, Copenhagen, printed in Denmark by Aarhuus, Stiftsbogtrykkerie A/S Arhus ISBN 8716003225 pages 34-44). The entire disclosure of the Eagleton and Watt article is hereby incorporated by reference and relied upon. There were employed predominantly male guinea pigs weighing 300 to 400 grams and the test substance was applied orally after 24 hour feeding intervals and 12 hours deprivation of drinking water. One hour after giving the substance the guinea pigs were given the injection of histamine diphosphate (histamine acid phosphate) at a dosage of 5 mg/kg (the histamine diphosphate was employed in aqueous solution at a concentration of 1 mg histamine disphosphate/ml). The histamine diphosphate was injected introperitoneally. Three hours after the injection of histamine the animals were killed with CO2. The stomachs were resected and cut open along the small curvature and turned upside down over the examination finger. The ulcers were evaluated according to Munchow (Arzneimittelforschung Vol. 4 (1954 pages 341-344).
# The calculated control index must in the order of magnitude between 5 and 15.
# [3] = acute toxicity in the mouse (method of Miller and Tainter); conditions: in vivo, oral application
# Experimental: The acute toxicity of the compound of the invention in the mouse (expressed by LD50 mg/kg; method of Miller and Tainter; Proc. Soc. Exper. Biol. a. Med. Vol 57 (1944) pages 261 et seq.) on oral application, for example is above 6000 mg/kg.
# [4] = central nervous system influencing activity
# [5] = ulcer healing / antiulcer activity, general statement (test not specified); assay type: in vivo
smiles,measurement,setting,value
"C=C1CC[C@@]2(OC1)O[C@H]1C[C@H]3[C@@H]4CC=C5C[C@@H](O)C[C@@H](O)[C@]5(C)[C@H]4[C@H](O)C[C@]3(C)[C@H]1[C@@H]2C [Helleborus main sapogenin, spiro-5,25(27)-diene-1β,3β,11α-triol]",ULCER PROTECTING EFFECT,"[1]; daily dosage 50 mg/kg, oral",58%
same,ULCER PROTECTING EFFECT,"[1]; daily dosage 100 mg/kg, oral",78%
same,ULCER PROTECTING EFFECT,"[1]; daily dosage 200 mg/kg, oral",80%
same,anti-ulcer activity,"[1]; indometacin ulcers of rats, oral",good anti-ulcer activity
same,minimal effective dose,"[1]; po, orally, above mentioned animal experiments (indometacin ulcers of rats, histamine ulcers of guinea pigs), read-out: lowest effective dosage",50 mg/kg
same,anti-ulcer activity,[2],good anti-ulcer activity
same,LD50,[3],> 6000 mg/kg
same,muscle relaxing activity,muscle relaxing activity,muscle relaxing
same,central nervous system influencing activity,[4],central nervous system influencing activity has been established
same,antiulcer activity compared with Biogastrone,[5]; comparison with the known medicine Biogastrone,comparable to the activity of the known medicine Biogastrone
same,ulcer healing activity,[5]; in vivo,has an ulcer healing activity
